Data as given in ChEMBL document CHEMBL3632572, “Adenosine/guanosine preferring nucleoside ribohydrolase is a distinct, druggable antitrichomonal target” (Bioorg Med Chem Lett, 2015).
pIC50: −log10 of the molar value. Calls of active or inactive are those of the source. No cut-off for these calls is given here.

Assays:
[1] = Inhibition of Trichomonas vaginalis adenosine-guanosine preferring ribohydrolase after 40 mins
[2] = test system: Trichomonas vaginalis; experiment: Inhibition of Trichomonas vaginalis uridine ribohydrolase after 40 mins
[3] = Inhibition of Trichomonas vaginalis adenosine-guanosine preferring ribohydrolase after 40 mins in presence of 0.01% triton X-100

Structure (SMILES)	pIC50 [1]	inhibition [2]	pIC50 [3]
O=C1c2c(O)cc(O)cc2OC(c2ccc(O)c(O)c2)C1O (racemic) [TAXIFOLIN]	5.23	inactive	4.90
COc1ccccc1OCCNCC(O)COc1cccc2[nH]c3ccccc3c12 (stereo not drawn) [CARVEDILOL]	4.98	inactive	
C[C@@H]1O[C@@H](OC[C@H]2O[C@@H](Oc3c(-c4ccc(O)c(O)c4)oc4cc(O)cc(O)c4c3=O)[C@H](O)[C@@H](O)[C@@H]2O)[C@H](O)[C@H](O)[C@H]1O [RUTIN]	4.99	inactive	4.76
O=C1c2c(O)cc(O)cc2O[C@H](c2ccc(O)c(O)c2)[C@H]1O [(+)-TAXIFOLIN]	5.03	inactive	4.47
Cc1ccc(NC(=O)c2ccc(CN3CCN(C)CC3)cc2)cc1Nc1nccc(-c2cccnc2)n1 [IMATINIB]	5.74	inactive	5.46

More lines, in order of rising pIC50 [1], values ahead:

pIC50 [1]	inhibition [2]	pIC50 [3]	Structure (SMILES)
5.01	inactive	4.93	OC[C@H]1O[C@@H](n2cnc3c(NC4CCCC4)nc(Cl)nc32)[C@H](O)[C@@H]1O
5.66	inactive	5.40	O=c1c(O[C@@H]2O[C@H](CO)[C@H](O)[C@H](O)[C@H]2O)c(-c2ccc(O)c(O)c2)oc2cc(O)cc(O)c12 [HYPEROSIDE]
6.52	inactive	6.05	O=c1c(O[C@@H]2O[C@H](CO)[C@@H](O)[C@H](O)[C@H]2O)c(-c2ccc(O)c(O)c2)oc2cc(O)cc(O)c12 [ISOQUERCETIN]
